Consider eight molecules from patent US7569594B2, “Analogs of leucascandrolide A” (The University of Chicago, priority 2005, dated 2009).

The subject of assay [1] is A549, PC3 and HCT116 cells. In words: Cell Growth/Viability Assays (CellTiter-Glo). The format is cell-based. As to conditions: Homo sapiens; 48 h incubation; cancer cells. How it is done:
Cell Growth/Viability Assays. All assays were performed using at least three replicate wells for each compound concentration tested. Cells were seeded in 96-well white plates at the density of 1000 cells/well in 100 μL of the appropriate cell culture media. Adherent A549, PC3 and HCT116 cells were allowed to attach and grow for 24 h and then treated with 30 μL of the solution of a compound and incubated further for 48 h. After incubation, cell viability was determined using a luminescence-based commercial kit (CellTiter-Glo, Promega) and luminescence was analyzed using a Wallac Victor III plate reader. Compound concentration that gave 50% reduction in cell viability when compared with untreated control cells was calculated from sigmoidal plots of cell viability versus drug concentration. To measure cell growth inhibition, similar viability assays were performed twice: at 0 h and after 48 h incubation. And then change in number of viable cells was measured and calculated from sigmoidal plots.
Biological Activity—Using methods similar to that described above, the following compounds were tested.

A further assay relates to Yeast. Briefly: Yeast activity. The format is cell-based.
For assay [2], the system named is human A549 non-small lung caner cells. To be noted: cited from earlier work.
For assay [3], the system named is W303 strain of yeast S. cerevisiae. As to conditions: 11.2 mg per disk; cited from earlier work.
The test system of assay [4] is HCT-116 colon cancer cells. To be noted: HCT-116 cells; cited from earlier work.

As to `COC(=O)NC/C=C\c1nc(CC/C=C\C(=O)O[C@@H]2CC3CC(=O)O[C@H](/C=C/CC(C)C)CC4CCCC(C[C@H](OC)CC(C2)O3)O4)co1` (some centres unmarked), the GI50 – broadly, the concentration at which growth is held to half of that of the control – in assay [1] lay in the range of 10 to 100 nM. The “Yeast: Active/Inactive” value in the assay with Yeast was “Yeast: Active”.

The molecule `COC(=O)NC/C=C\c1nc(CC/C=C\C(=O)O[C@H]2CC3CC(=O)O[C@@H](CCCC(C)C)CC4CCCC(C[C@@H](OC)CC(C2)O3)O4)co1` (mixture of isomers) [racemic JJ-2-96] showed a 50% growth inhibitory concentration (GI50) in assay [1] of 1 to 10 nM. Moreover, in the assay with Yeast, the “Yeast: Active/Inactive” value is given as “Yeast: Active”.

Consider `CCCCC[C@H]1CC2CCCC(C[C@@H](OC)CC3C[C@@H](OC(=O)/C=C\CCc4coc(/C=C\CNC(=O)OC)n4)CC(CC(=O)O1)O3)O2` (mixture of isomers) [racemic JJ-2-173], for which the GI50 in assay [1] is 1 to 10 nM. For the same molecule, the “Yeast: Active/Inactive” value in the assay with Yeast is “Yeast: Active”.

The molecule `COC(=O)NC/C=C\c1nc(CC/C=C\C(=O)O[C@H]2CC3CC(=O)O[C@@H](CCCCCO)CC4CCCC(C[C@@H](OC)CC(C2)O3)O4)co1` (mixture of isomers) [racemic JJ-2-194] registered a concentration for 50% growth inhibition (GI50) in assay [1] of 10 to 100 nM. In addition, in the assay with Yeast, the “Yeast: Active/Inactive” value is on record as “Yeast: Inactive”.

Molecule `C#CCCCCCCCC[C@H]1CC2CCCC(C[C@@H](OC)CC3C[C@@H](OC(=O)/C=C\CCc4coc(/C=C\CNC(=O)OC)n4)CC(CC(=O)O1)O3)O2` (mixture of isomers) [racemic JJ-2-286] had a GI50 in assay [1] of 1 to 10 nM. Further, in the assay with Yeast, the “Yeast: Active/Inactive” value was “Yeast: Active”.

`COC(=O)NC/C=C\c1nc(CC/C=C\C(=O)O[C@H]2CC3CC(=O)O[C@@H](CCCCCCCCc4cn(CCCNC(=O)OC(C)(C)C)nn4)CC4CCCC(C[C@@H](OC)CC(C2)O3)O4)co1` (mixture of isomers) [racemic JJ-2-288] registered a concentration for 50% growth inhibition (GI50) in assay [1] of 10 to 100 nM. In addition, the “Yeast: Active/Inactive” value with Yeast is recorded as “Yeast: Active”.

`COC(=O)NC/C=C\c1nc(CC/C=C\C(=O)O[C@H]2CC3CC(=O)O[C@@H](/C=C/CC(C)C)CC4CCCC(C[C@@H](OC)CC(C2)O3)O4)co1` (single isomer, unassigned; (+)) [(+)-JJ-2-37] came in with a GI50 in assay [1] of 1 to 10 nM. Further, the “Yeast: Active/Inactive” value in the assay on Yeast was “Yeas: Active”.

In the case of `COC(=O)NC/C=C\c1nc(CC/C=C\C(=O)OC2CC3CC(=O)O[C@H](/C=C/CC(C)C)C[C@H]4CCC(C)C(C[C@H](OC)CC(C2)O3)O4)co1` (some centres unmarked) [Leucascandrolide A], the GI50 is 0.93 nM in assay [2] and 0.87 nM in assay [4]. The “inhibition diameter per disk” value in assay [3] is 33 mm.
